Read-outs that look alike come from different tables or passages of the source.
Assays:
[1] = tested on: Candida albicans SLU-2G amphotericin B-resistant strain; experiment: Radial diffusion assay (Example 3), amphotericin B-resistant strain; type: cell-based; conditions: FIG. 2B
Experimental: Domain III derived peptides were tested for their fungicidal activity on amphotericin resistant Candida. Resistant colonies of Candida were isolated using a gradient plate technique. A slanted Sabouraud dextrose agar plate was poured and allowed to harden. The plate was made level and additional agar supplemented with nystatin (Sigma, St. Louis, Mo., cat. no. N-3503) at a concentration of 10 μg/mL was poured. Cells from the CA-1 colony of Candida albicans SLU-1 strain described in Example 2 (10^7 cells in a volume of 100 μL) were spread over the plate and incubated at […] overnight.
For the radial diffusion assays, Candida albicans SLU-1 were grown as described above and SLU-2G were grown overnight in Sabouraud dextrose broth supplemented with 10 μg/mL amphotericin B and 5 μg/mL ceftriaxone at 37° C. Cultures were diluted 1:25 into fresh, unsupplemented broth and allowed to grow for 5 hours at 37° C. Cells were pelleted at 1,500×g for 5 minutes at 4° C. Supernatant was decanted and replaced with 5 mL of 10 mM phosphate buffer, pH 7.4. After centrifugation the cell pellets were resuspended with 5 mL phosphate buffer for an OD570 determination.
Cells were added to 10 mL of molten, cooled (˜45° C.) underlayer agarose to a concentration of 1×10^6/mL and the suspension was poured into a level square petri plate with gentle rocking to allow even distribution and solidification to a uniform thickness of about 1 mm. Wells were cut into the hardened agarose with a sterilize, 3 mm diameter punch with vacuum.
Peptides were two-fold serially diluted with DPBS from a starting concentration of approximately 1 mg/mL. […] Five μL were added per well and allowed to diffuse at 37° C. for 1.5-2.0 hours. Then 10 mL of molten overlayer agarose were added and the plates were incubated inverted at 37° C. overnight. Plates were stained with a dilute Coomassie solution, inhibition zones were measured with calipers and net areas were calculated, then converted to pmol values by PROBIT analysis.

[2] = tested on: C. albicans (CA-1, Strain SLU-1); experiment: Radial diffusion assay; type: cell-based, Candida albicans; conditions: pmoles of peptide added to well to achieve a 30 mm^2 zone, PROBIT analysis, crude or purified (P′) peptide
Procedure, shortened: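 Peptides, serially diluted 2-fold in D-PBS (top ~1 mg/mL), diffused 3 h at 37° C into pH 7.4 phosphate-buffered agarose seeded with 1×10^6 CFU/mL yeast, before overnight growth under a 6% Sabouraud overlayer. Net inhibition zones measured after Coomassie staining; PROBIT fit of log pmol vs area gave pmol for 30 mm^2.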

Candida albicans = experiment: Radial diffusion assay, Candida species (Table 2); type: cell-based; conditions: higher effective concentration of agarose than Table 1
Aspergillus ATCC 13073 = experiment: microbe, parasite or virus in culture; type: cell-based
Experimental: (§1) The anti-fungal activity of Domain III derived peptides was evaluated against a variety of fungal species, including species of Candida. Cryptococcus, Fusarium, Trichophyton, and Aspergillus, by an additional assay protocol utilizing Alamar Blue. Alamar Blue is an indicator dye formulated to measure quantitatively the proliferation of a variety of human or animal cells, bacteria, or fungi. It consists of an oxidation-reduction (REDOX) indicator that yields a colorimetric change in response to metabolic activity. For these experiments, species of Candida and Cryptococcus were grown in Sabouraud's dextrose broth (SDB) overnight. Strains of filamentous fungi (Aspergilius, Fusanum, Trichophyton) were obtained by irrigation of a confluent culture from a petri dish. Cells were washed and adjusted to a concentration of 5.0×10^3/mL in fresh SDB. […] Controls included amphotericin B, fluconazole, ketoconazole and griseofulvin. Antifungal drugs were also diluted in the same manner. Assays were performed in 96-well microuiter plates. […] The wells to be plated were determined by OD590 readings. The lowest concentration of peptide which maintained the blue color (or OD reading) of the blank was chosen along with the next two higher concentrations. Plates were allowed to grow for 18-48 hours depending on the rate of growth of each fungus. Minimal fungicidal activity (MFC) was determined as a 99.9% killing of the starting inoculum.

[3] = tested on: Fusarium solani ATCC 36031; experiment: microbe, parasite or virus in culture; type: cell-based
Experimental: as §1

[4] = tested on: Cryptococcus neoformans ATCC 13690; experiment: microbe, parasite or virus in culture; type: cell-based
Experimental: as §1

[5] = tested on: Candida parapsilosis ATCC 22019; experiment: microbe, parasite or virus in culture; type: cell-based
Experimental: as §1

[6] = tested on: Aspergillus niger ATCC 16404; experiment: microbe, parasite or virus in culture; type: cell-based
Experimental: as §1

[7] = tested on: Candida glabrata ATCC 2001; experiment: microbe, parasite or virus in culture; type: cell-based
Experimental: as §1

[8] = tested on: Candida albicans (SLU-1 and ATCC strains); experiment: microbe, parasite or virus in culture; type: cell-based
Experimental: as §1

H-KSKVGWAIQLFHKK-NH2 [XMP.37]
pmol for a 30 mm^2 zone of inhibition against SLU-2G [1]: 75 pmol
C. albicans pmol/30 mm^2 zone [2]: 253 pmol/30 mm^2 zone

H-KSKVGWLIQLFHKK-NH2 [XMP.13]
pmol for a 30 mm^2 zone of inhibition against SLU-2G [1]: 129 pmol
C. albicans pmol/30 mm^2 zone [2]: 541 pmol/30 mm^2 zone
C. albicans pmol/30 mm^2 zone ([2]; listed as XMP.13P′): 222 pmol/30 mm^2 zone
Anti-fungal activity: pmol/30 mm^2 zone, Candida albicans (Candida albicans): 2,233 pmol/30 mm^2 zone

H-SKVKWLIQLFHKK-NH2 [XMP.284]
C. albicans pmol/30 mm^2 zone [2]: 1,460 pmol/30 mm^2 zone
C. albicans pmol/30 mm^2 zone ([2]; listed as XMP.284P′): 373 pmol/30 mm^2 zone
Minimum Fungicidal Concentration, Aspergillus ATCC 13073 (Aspergillus ATCC 13073; ATCC 13073): 12.50 µg/mL
Minimum Fungicidal Concentration, Fusarium solani ATCC 36031 ([3]; ATCC 36031): 0.31 µg/mL
Minimum Fungicidal Concentration, Cryptococcus neoformans ATCC 13690 ([4]; ATCC 13690): 0.63 µg/mL
Minimum Fungicidal Concentration, Candida parapsilosis ATCC 22019 ([5]; ATCC 22019): >10.0 µg/mL
Minimum Fungicidal Concentration, Aspergillus niger ATCC 16404 ([6]; ATCC 16404): 2.5 µg/mL
Minimum Fungicidal Concentration, Candida glabrata ATCC 2001 ([7]; ATCC 2001): >10.0 µg/mL
Minimum Fungicidal Concentration, Candida albicans ATCC 10231 ([8]; SLU-1 and ATCC strains): 5.0 µg/mL
Minimum Fungicidal Concentration, Candida albicans ATCC 18840 ([8]; SLU-1 and ATCC strains): 2.5 µg/mL
Minimum Fungicidal Concentration, Candida albicans ATCC 26555 ([8]; SLU-1 and ATCC strains): 1.25 µg/mL
Minimum Fungicidal Concentration, Candida albicans ATCC 44808 ([8]; SLU-1 and ATCC strains): 1.25 µg/mL
Minimum Fungicidal Concentration, Candida albicans ATCC 90028 ([8]; SLU-1 and ATCC strains): 1.25 µg/mL
Minimum Fungicidal Concentration, Candida albicans SLU-1 ([8]; SLU-1 and ATCC strains): 2.50 µg/mL

C[C@@H]1[C@H](O)[C@@H](C)/C=C/C=C/C=C/C=C/C=C/C=C/C=C/[C@H](O[C@@H]2O[C@H](C)[C@@H](O)[C@H](N)[C@@H]2O)C[C@@H]2O[C@](O)(C[C@@H](O)C[C@@H](O)[C@H](O)CC[C@@H](O)C[C@@H](O)CC(=O)O[C@H]1C)C[C@H](O)[C@H]2C(=O)O [Amphotericin B, amphotericin B, reference compound]
pmol for a 30 mm^2 zone of inhibition against SLU-2G [1]: > 541 pmol
Anti-fungal activity: pmol/30 mm^2 zone, Candida albicans (Candida albicans): 11 pmol/30 mm^2 zone
Minimum Fungicidal Concentration, Aspergillus ATCC 13073 (Aspergillus ATCC 13073): 12.50 µg/mL
Minimum Fungicidal Concentration, Fusarium solani ATCC 36031 [3]: 0.62 µg/mL
Minimum Fungicidal Concentration, Cryptococcus neoformans ATCC 13690 [4]: 1.25 µg/mL
Minimum Fungicidal Concentration, Candida parapsilosis ATCC 22019 [5]: 5.0 µg/mL
Minimum Fungicidal Concentration, Aspergillus niger ATCC 16404 [6]: 5.00 µg/mL
Minimum Fungicidal Concentration, Candida glabrata ATCC 2001 [7]: 0.32 µg/mL
Minimum Fungicidal Concentration, Candida albicans ATCC 10231 ([8]; strain ATCC 10231): 0.63 µg/mL
Minimum Fungicidal Concentration, Candida albicans ATCC 18840 ([8]; strain ATCC 18840): 1.25 µg/mL
Minimum Fungicidal Concentration, Candida albicans ATCC 26555 ([8]; strain ATCC 26555): 1.25 µg/mL
Minimum Fungicidal Concentration, Candida albicans ATCC 44808 ([8]; strain ATCC 44808): 1.25 µg/mL
Minimum Fungicidal Concentration, Candida albicans ATCC 90028 ([8]; strain ATCC 90028): 1.25 µg/mL
Minimum Fungicidal Concentration, Candida albicans SLU-1 ([8]; strain SLU-1): 0.63 µg/mL
